These results are taken from patent publication US12435060B2, “Acylamino bridged heterocyclic compound, and composition and application thereof” (BEIJING SCITECH-MQ PHARMACEUTICALS LIMITED, priority 2019, dated 2025).

The structures appear in SMILES notation.

In general, IC50 refers to the concentration that inhibits the measured activity by half. A low value points to inhibition by little substance.

This assay concerns HT29 cells. Kind of assay: Inhibition of cell necrosis (CCK8 method), induced programmed necrosis of HT29 cells. In kind it is cell-based. The settings on record: Homo sapiens, HT-29; rescue from necrosis induced by TNF-α 20 ng/mL, AT-406 1 μM, Z-VAD-FMK 20 μM; 16-20 hours; CCK-8, OD 450 nm. An outline of the steps:
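Rescue from programmed necrosis was scored by CCK-8 absorbance at 450 nm after 16-20 h of TNF-α (20 ng/mL), AT-406 (1 μM) and Z-VAD-FMK (20 μM) at 37 °C, 5% CO2. HT29 cells had received compound 30 min earlier across nine 4-fold dilutions (top 25000 nM final). IC50 came from % inhibition relative to uninduced and induced-only wells.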
(In general: Tetrazolium assays rely on reduction of a dye to a coloured formazan, in cell work by metabolically active cells.)
With `CC(C)(O)CCCOc1ccc(Cl)c(-c2cc(NC(=O)c3nnc(CC4CCCCC4)[nH]3)ncc2Cl)c1` [Example 412, N-(5-chloro-4-(2-chloro-5-((4-hydroxy-4-methylpentyl)oxy)phenyl)pyridin-2-yl)-5-(cyclohexylmethyl)-4H-1,2,4-triazole-3-carboxamide], the IC50 was 100 to 1000 nM.
As for `Cc1cnc(NC(=O)c2nnc(Cc3ccccc3F)[nH]2)cc1-c1cc(OCCCC(C)(C)O)ccc1Cl` [Example 413, N-(4-(2-chloro-5-((4-hydroxy-4-methylpentyl)oxy)phenyl)-5-methylpyridin-2-yl)-5-(2-fluorobenzyl)-4H-1,2,4-triazole-3-carboxamide], the IC50 lay in the range of 100 to 1000 nM.
The molecule `Cc1cnc(NC(=O)c2nnc(CC3CCCCC3)[nH]2)cc1-c1cc(OCCCC(C)(C)O)ccc1Cl` [Example 414, N-(4-(2-chloro-5-((4-hydroxy-4-methylpentyl)oxy)phenyl)-5-methylpyridin-2-yl)-5-(cyclohexylmethyl)-4H-1,2,4-triazole-3-carboxamide] had an IC50 of 100 to 1000 nM.
Molecule `CCC(O)(CC)CCCOc1ccc(Cl)c(-c2cc(NC(=O)c3nnc(Cc4ccccc4F)[nH]3)ncc2F)c1` [Example 415, N-(4-(2-chloro-5-((4-ethyl-4-hydroxyhexyl)oxy)phenyl)-5-fluoropyridin-2-yl)-5-(2-fluorobenzyl)-4H-1,2,4-triazole-3-carboxamide] came in with an IC50 of at most 100 nM.
The molecule `CCC(O)(CC)CCCOc1ccc(Cl)c(-c2cc(NC(=O)c3nnc(CC4CCCCC4)[nH]3)ncc2F)c1` [Example 416, N-(4-(2-chloro-5-((4-ethyl-4-hydroxyhexyl)oxy)phenyl)-5-fluoropyridin-2-yl)-5-(cyclohexylmethyl)-4H-1,2,4-triazole-3-carboxamide] gave an IC50 of at most 100 nM.
As for `CCC(O)(CC)CCCOc1ccc(Cl)c(-c2cc(NC(=O)c3nnc(Cc4ccccc4F)[nH]3)ncc2Cl)c1` [Example 417, N-(5-chloro-4-(2-chloro-5-((4-ethyl-4-hydroxyhexyl)oxy)phenyl)pyridin-2-yl)-5-(2-fluorobenzyl)-4H-1,2,4-triazole-3-carboxamide], the figure is 100 to 1000 nM; as for `CCC(O)(CC)CCCOc1ccc(Cl)c(-c2cc(NC(=O)c3nnc(CC4CCCCC4)[nH]3)ncc2Cl)c1` [Example 418, N-(5-chloro-4-(2-chloro-5-((4-ethyl-4-hydroxyhexyl)oxy)phenyl)pyridin-2-yl)-5-(cyclohexylmethyl)-4H-1,2,4-triazole-3-carboxamide], 100 to 1000 nM.
In turn, `CC(C)(O)CCCCOc1ccc(Cl)c(-c2cc(NC(=O)c3nnc(Cc4ccccc4F)[nH]3)ncc2F)c1` [Example 419, N-(4-(2-chloro-5-((5-hydroxyl-5-methylhexyl)oxy)phenyl)-5-fluoropyridin-2-yl)-5-(2-fluorobenzyl)-4H-1,2,4-triazole-3-carboxamide] yielded an IC50 of at most 100 nM.
Then `CC(C)(O)CCCCOc1ccc(Cl)c(-c2cc(NC(=O)c3nnc(Cc4ccccc4F)[nH]3)ncc2Cl)c1` [Example 420, N-(5-chloro-4-(2-chloro-5-((5-hydroxyl-5-methylhexyl)oxy)phenyl)pyridin-2-yl)-5-(2-fluorobenzyl)-4H-1,2,4-triazole-3-carboxamide], with 100 to 1000 nM; and `CC(C)(O)CCCCOc1ccc(Cl)c(-c2cc(NC(=O)c3nnc(CC4CCCCC4)[nH]3)ncc2Cl)c1` [Example 421, N-(5-chloro-4-(2-chloro-5-((5-hydroxyl-5-methylhexyl)oxy)phenyl)pyridin-2-yl)-5-(cyclohexylmethyl)-4H-1,2,4-triazole-3-carboxamide], with 100 to 1000 nM; and `O=C(Nc1cc(-c2cc(OCC3CCOCC3)ccc2Cl)c(F)cn1)c1nnc(Cc2ccccc2F)[nH]1` [Example 422, N-(4-(2-chloro-5-((tetrahydro-2H-pyran-4-yl)methoxy)phenyl)-5-fluoropyridin-2-yl)-5-(2-fluorobenzyl)-4H-1,2,4-triazole-3-carboxamide], with at most 100 nM.
The molecule `O=C(Nc1cc(-c2cc(OCC3CCOCC3)ccc2Cl)c(F)cn1)c1nnc(CC2CCCCC2)[nH]1` [Example 423, N-(4-(2-chloro-5-((tetrahydro-2H-pyran-4-yl)methoxy)phenyl)-5-fluoropyridin-2-yl)-5-(cyclohexylmethyl)-4H-1,2,4-triazole-3-carboxamide] had an IC50 of at most 100 nM.
`O=C(Nc1cc(-c2cc(OCC3CCOCC3)ccc2Cl)c(Cl)cn1)c1nnc(Cc2ccccc2F)[nH]1` [Example 424, N-(5-chloro-4-(2-chloro-5-((tetrahydro-2H-pyran-4-yl)methoxy)phenyl)pyridin-2-yl)-5-(2-fluorobenzyl)-4H-1,2,4-triazole-3-carboxamide]: the IC50 fell in the range of 100 to 1000 nM.
Regarding `O=C(Nc1cc(-c2cc(OCC3CCOCC3)ccc2Cl)c(Cl)cn1)c1nnc(CC2CCCCC2)[nH]1` [Example 425, N-(5-chloro-4-(2-chloro-5-((tetrahydro-2H-pyran-4-yl)methoxy)phenyl)pyridin-2-yl)-5-(cyclohexylmethyl)-4H-1,2,4-triazole-3-carboxamide], the 50% inhibitory concentration (IC50) is 100 to 1000 nM.
Then `Cc1cnc(NC(=O)c2nnc(Cc3ccccc3F)[nH]2)cc1-c1cc(OCC2CCOCC2)ccc1Cl` [Example 426, N-(4-(2-chloro-5-((tetrahydro-2H-pyran-4-yl)methoxy)phenyl)-5-methylpyridin-2-yl)-5-(2-fluorobenzyl)-4H-1,2,4-triazole-3-carboxamide], with 100 to 1000 nM; and `Cc1cnc(NC(=O)c2nnc(CC3CCCCC3)[nH]2)cc1-c1cc(OCC2CCOCC2)ccc1Cl` [Example 427, N-(4-(2-chloro-5-((tetrahydro-2H-pyran-4-yl)methoxy)phenyl)-5-methylpyridin-2-yl)-5-(cyclohexylmethyl)-4H-1,2,4-triazole-3-carboxamide], with 100 to 1000 nM; and `O=C(Nc1cc(-c2cc(OCCC3CCOCC3)ccc2Cl)c(F)cn1)c1nnc(Cc2ccccc2F)[nH]1` [Example 428, N-(4-(2-chloro-5-(2-(tetrahydro-2H-pyran-4-yl)ethoxy)phenyl)-5-fluoropyridin-2-yl)-5-(2-fluorobenzyl)-4H-1,2,4-triazole-3-carboxamide], with at most 100 nM.
On to `O=C(Nc1cc(-c2cc(OCCC3CCOCC3)ccc2Cl)c(F)cn1)c1nnc(CC2CCCCC2)[nH]1` [Example 429, N-(4-(2-chloro-5-(2-(tetrahydro-2H-pyran-4-yl)ethoxy)phenyl)-5-fluoropyridin-2-yl)-5-(cyclohexylmethyl)-4H-1,2,4-triazole-3-carboxamide], for which the IC50 is at most 100 nM.
Then `O=C(Nc1cc(-c2cc(OCCC3CCOCC3)ccc2Cl)c(Cl)cn1)c1nnc(Cc2ccccc2F)[nH]1` [Example 430, N-(5-chloro-4-(2-chloro-5-(2-(tetrahydro-2H-pyran-4-yl)ethoxy)phenyl)pyridin-2-yl)-5-(2-fluorobenzyl)-4H-1,2,4-triazole-3-carboxamide], with 100 to 1000 nM; and `O=C(Nc1cc(-c2cc(OCCC3CCOCC3)ccc2Cl)c(Cl)cn1)c1nnc(CC2CCCCC2)[nH]1` [Example 431, N-(5-chloro-4-(2-chloro-5-(2-(tetrahydro-2H-pyran-4-yl)ethoxy)phenyl)pyridin-2-yl)-5-(cyclohexylmethyl)-4H-1,2,4-triazole-3-carboxamide], with 100 to 1000 nM.
Then `Cc1ccc(OCCCC(C)(C)O)cc1-c1cc(NC(=O)c2nnc(Cc3ccccc3)[nH]2)ncn1` [Example 432, 5-benzyl-N-(6-(5-((4-hydroxy-4-methylpentyl)oxy)-2-methylphenyl)pyrimidin-4-yl)-4H-1,2,4-triazole-3-carboxamide], with at most 100 nM; and `Cc1ccc(OCCCC(C)(C)O)cc1-c1cc(NC(=O)c2nnc(Cc3ccccc3F)[nH]2)ncn1` [Example 433, 5-(2-fluorobenzyl)-N-(6-(5-((4-hydroxy-4-methylpentyl)oxy)-2-methylphenyl)pyrimidin-4-yl)-4H-1,2,4-triazole-3-carboxamide], with at most 100 nM.
The molecule `Cc1ccc(OCCCC(C)(C)O)cc1-c1cc(NC(=O)c2nnc(Cc3cccc(F)c3)[nH]2)ncn1` [Example 434, 5-(3-fluorobenzyl)-N-(6-(5-((4-hydroxy-4-methylpentyl)oxy)-2-methylphenyl)pyrimidin-4-yl)-4H-1,2,4-triazole-3-carboxamide] had an IC50 of at most 100 nM.
For the molecule `Cc1ccc(OCCCC(C)(C)O)cc1-c1cc(NC(=O)c2nnc(Cc3ccc(F)cc3F)[nH]2)ncn1` [Example 435, 5-(2,4-difluorobenzyl)-N-(6-(5-((4-hydroxy-4-methylpentyl)oxy)-2-methylphenyl)pyrimidin-4-yl)-4H-1,2,4-triazole-3-carboxamide], the IC50 was at most 100 nM.
In the case of `Cc1ccc(OCCCC(C)(C)O)cc1-c1cc(NC(=O)c2nnc(Cc3cc(F)ccc3F)[nH]2)ncn1` [Example 436, 5-(2,5-difluorobenzyl)-N-(6-(5-((4-hydroxy-4-methylpentyl)oxy)-2-methylphenyl)pyrimidin-4-yl)-4H-1,2,4-triazole-3-carboxamide], the IC50 was at most 100 nM.
In the case of `Cc1ccc(OCCCC(C)(C)O)cc1-c1cc(NC(=O)c2nnc(Cc3cc(F)cc(F)c3)[nH]2)ncn1` [Example 437, 5-(3,5-difluorobenzyl)-N-(6-(5-((4-hydroxy-4-methylpentyl)oxy)-2-methylphenyl)pyrimidin-4-yl)-4H-1,2,4-triazole-3-carboxamide], the IC50 was in the range of 100 to 1000 nM.
As to `Cc1ccc(OCCCC(C)(C)O)cc1-c1cc(NC(=O)c2nnc(Cc3cccc(Cl)c3F)[nH]2)ncn1` [Example 438, 5-(3-chloro-2-fluorobenzyl)-N-(6-(5-((4-hydroxy-4-methylpentyl)oxy)-2-methylphenyl)pyrimidin-4-yl)-4H-1,2,4-triazole-3-carboxamide], the IC50 fell in the range of 100 to 1000 nM.
In turn, `Cc1ccc(OCCCC(C)(C)O)cc1-c1cc(NC(=O)c2nnc(CC3CCCC3)[nH]2)ncn1` [Example 439, 5-(cyclopentylmethyl)-N-(6-(5-((4-hydroxy-4-methylpentyl)oxy)-2-methylphenyl)pyrimidin-4-yl)-4H-1,2,4-triazole-3-carboxamide] displayed an IC50 of at most 100 nM.
